Test results: PMC11219871, “Epigenetic-based differentiation therapy for Acute Myeloid Leukemia” (Nature Communications, 2024)
Where “and” joins values, the source holds several entries; their conditions need not be identical. Equal values may be shown once. Read-outs that look alike come from different tables or passages of the source.

Columns and labels:
ML-2 [1] = assay: Differentiation-apoptosis assay, CD11b / annexin-V / Sytox Green / myeloid markers flow cytometry; type: cell-based, human; set-up: Cell viability: concentration or dose not given beside the values; details: ML-2, 48 h; replicates (Fig 4A)
How it was run: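 Cells washed in PBS, resuspended at 1 × 10^6 cells/mL in binding buffer and stained with APC-CD11b and FITC annexin-V for 15 min at room temperature in the dark, then read by flow cytometry. Other runs used a CD13/HLA-DR/CD14 antibody panel, 30 min staining, then red-cell lysis and washes.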

ML-2 [2] = assay: Acetylome analysis (Acetyl-K enrichment, LC-MS/MS); type: cell-based, human; details: for Acetyl-K sites regulated, Number, Histone proteins / Acetyl-K sites regulated, Number, Non-histone proteins / Acetyl-K sites regulated, Percentages, Histone proteins / Acetyl-K sites regulated, Percentages, Non-histone proteins: Fig 4G; for Acetyl-K sites, Down-regulated / Acetyl-K sites, Up-regulated: Fig. 4C; for regulated Acetyl-K sites in Histone proteins / regulated Acetyl-K sites in Non-histone proteins: Fig. 4G; for percentage of Acetyl-K sites regulated: of 3618 quantified
Protocol: Cellular pellets were lysed for 15 min at 95 °C in 4% SDS, 100 mM Hepes/NaOH pH 8.0, containing 5 mM sodium butyrate and 5 mM Nicotinamide. After cooling down, lysates were incubated at 25 °C with 10 units of DNAse (Benzonase, Merk) and sonicated for 15 min in a Bioruptor for DNA shearing. Protein concentration was determined using microBCA, using BSA as standard. Samples were digested using on-bead protein aggregation capture (PAC) with ReSyn Biosciences MagReSyn® Hydoxyl microparticles (ratio Protein/Beads 1:5) in an automated King Fisher instrument (Thermo). Proteins were digested for 16 h at 37 C with LysC/Trypsin mix at a protein: enzyme ratio of 1:100 in 50 mM TEAB pH 8.0 (Trypsin Sequence grade, Sigma; LysC, Wako). The resulting peptides were speed-vac dried and dissolved in 100 µL of 200 mM HEPES pH 8.5.
Peptides (500 µg) were labeled with Thermo Scientific TMTpro 18plex™ Isobaric reagents for 1 h at 25 C. Reaction was quenched by adding 5% hydroxylamine for 15 min. Samples were pooled at a 1:1 ratio based on the total peptide amount, determined by comparing overall signal intensities on a regular LC-MS/MS run. The final mixture was desalted using a 500 mg Sep-Pak C18t cartridge (Waters) and dried prior to high pH reverse phase HPLC pre-fractionation.
Labeled peptides were fractionated offline through a high pH reverse phase chromatography using an Ultimate 3000 HPLC system equipped with a sample collector. Briefly, peptides were dissolved in 1200 µL of Buffer A (10 mM NH4OH) and loaded onto a XBridge BEH130 C18 column (3.5 µm, 250 mm length and 3.5 mm ID, Waters). Buffer B was composed of 10 mM NH4OH in 90% CH3CN. The following gradient was used at a flow rate of 500 µL/min: 0-50 min 0-25% B, 50-56 min 25-60% B, 56-57 min 60-90% B. One-minute fractions (500 µL) from […] were collected and neutralized with 10% formic acid. Based on the UV absorbance at 280 nm, 95% of the volume of 40 fractions was pooled in 5 fractions for Acetyl-Lysine enrichment. The 5% of these fractions was kept for proteome analysis. Pooled fractions were snap-frozen and lyophilized.
Lyophilized peptides (1.5 mg) from each pool were immuno-affinity purified with the PTMScan HS Acetyl-Lysine Motif (Ac−K) kit (Cell Signaling Technology). For each pool, three consecutive immuno-purifications (IPs) were performed using the manufacturer’s protocol in an automated King Fisher instrument (Thermo). Elution of purified peptides was performed in two consecutive steps of 50 μl of 0.15% TFA. Samples were desalted with C18 stage tips and eluates were vacuum dried and resuspended in 0.1% formic acid for subsequent analysis by LC−MS/MS.
LC-MS/MS was done by coupling an UltiMate 3000 RSLCnano LC system to an Orbitrap Exploris 480 mass spectrometer (Thermo Fisher Scientific). Samples were loaded into a trap column (Acclaim™ PepMap™ 100 C18 LC Columns 5 µm, 20 mm length) for 3 min at a flow rate of 10 µL/min in 0.1% FA. Peptides were then transferred to an EASY-Spray PepMap RSLC C18 column (Thermo) (2 µm, 75 µm x 50 cm) operated at 45 °C and separated using a 90 min effective gradient (buffer A: 0.1% FA; buffer B: 100% ACN, 0.1% FA) at a flow rate of 250 nL/min. The gradient used was, from 4% to 6% of buffer B the first 2 min, from 6% to 33% B the next 58 min, plus 10 additional minutes at 98% B.
The mass spectrometer was operated in a data-dependent mode, with an automatic switch between MS and MS/MS scans using a top 15 method. (Intensity threshold ≥ 1e4, dynamic exclusion of 20 sec and excluding charges unassigned, +1 and ≥ +7). MS spectra were acquired from 350 to 1500 m/z with a resolution of 60,000 FMHW (200 m/z). Ion peptides were isolated using a 0.7 Th window and fragmented using higher-energy collisional dissociation (HCD) with a normalized collision energy NCE of 36. MS/MS spectra were acquired with a fixed first mass of 120 m/z and a resolution of 45,000 FMHW (200 m/z). […]

[3] = ML-2, first (superseded) acetylome experiment, peer review file
[4] = distribution of acetylated sites in the acetylated proteins (Fig 4D)

SMILES	CD11b (ML-2 [1])	Cell viability (ML-2 [1])	Acetyl-K sites regulated, Number, Histone proteins (ML-2 [2])	Acetyl-K sites regulated, Number, Non-histone proteins (ML-2 [2])	Acetyl-K sites regulated, Percentages, Histone proteins (ML-2 [2])	Acetyl-K sites regulated, Percentages, Non-histone proteins (ML-2 [2])	Acetyl-K sites: Down-regulated, % (ML-2 [2]; ML-2 (Fig 4C)) [%]	Acetyl-K sites: Down-regulated, Number (ML-2 [2]; ML-2 (Fig 4C))	Acetyl-K sites: Non-regulated, % (ML-2 [2]; ML-2 (Fig 4C)) [%]	Acetyl-K sites: Non-regulated, Number (ML-2 [2]; ML-2 (Fig 4C))	Acetyl-K sites: Quantified (total number) (ML-2 [2]; ML-2 (Fig 4C))	Acetyl-K sites: Regulated, % (ML-2 [2]; ML-2 (Fig 4C)) [%]	Acetyl-K sites: Regulated, Number (ML-2 [2]; ML-2 (Fig 4C))	Acetyl-K sites: Up-regulated, Number (ML-2 [2]; ML-2 (Fig 4C))	fraction of regulated acetylation sites upregulated (ML-2 [2]; ML-2, 25% GI50, 12 h) [%]	Acetyl-K sites, Down-regulated (ML-2 [2]; ML-2, 25% GI50, 12 h)	Acetyl-K sites, Up-regulated (ML-2 [2]; ML-2, 25% GI50, 12 h)	regulated Acetyl-K sites in Histone proteins (ML-2 [2]; ML-2, 25% GI50, 12 h)	regulated Acetyl-K sites in Non-histone proteins (ML-2 [2]; ML-2, 25% GI50, 12 h)	percentage of Acetyl-K sites regulated (ML-2 [2]; ML-2, 25% GI50, 12 h) [%]	further results
Cc1[nH]c2ccccc2c1CCNCc1ccc(/C=C/C(=O)NO)cc1 [Panobinostat, reference compound]	36.1% and 27.0% and 28.8%	69.0% and 63.1% and 66.5%	52	587	8.1	91.9	8.9	322	82.3	2979	3618	17.7	639	317	49.6	322	317	52	587	17.7	Number of proteins with >5 Acetyl-K sites per protein (ML-2 [2]): 11; Acetyl-K sites: Up-regulated, % (ML-2 [2]; ML-2 (Fig 4C)): 8.8%; acetyl K-sites regulated specifically by the compound (ML-2 [2]; [3]): 232; fraction of regulated acetylation sites upregulated (ML-2 [2]; [3]): 53.2%; Number of proteins with 1 Acetyl-K site per protein (ML-2 [2]; [4]): 354; Number of proteins with 2 Acetyl-K sites per protein (ML-2 [2]; [4]): 56; Number of proteins with 3 Acetyl-K sites per protein (ML-2 [2]; [4]): 25; Number of proteins with 4 Acetyl-K sites per protein (ML-2 [2]; [4]): 6
O=C(CCCCCCC(=O)Nc1ccccc1)NO [Vorinostat, reference compound]	25.0% and 20.7% and 16.1%	86.1% and 82.9% and 82.7%	40	469	7.9	92.1	7.7	232	85.9	3109	3618	14.1	509	277	54.4	232	277	40	469	14.1	acetyl K-sites regulated specifically by the compound (ML-2 [2]; [3]): 121; fraction of regulated acetylation sites upregulated (ML-2 [2]; [3]): 37.3%; Number of proteins with 1 Acetyl-K site per protein (ML-2 [2]; [4]): 298; Number of proteins with 2 Acetyl-K sites per protein (ML-2 [2]; [4]): 54; Number of proteins with 3 Acetyl-K sites per protein (ML-2 [2]; [4]): 16; Number of proteins with 4 Acetyl-K sites per protein (ML-2 [2]; [4]): 5; Number of proteins with >5 Acetyl-K sites per protein (ML-2 [2]; [4]): 6
